Experimental data as given in article PMC8419995, “In vitro and in vivo efficacy of thiacloprid against Echinococcus multilocularis” (Parasites & Vectors, 2021).
Like-named read-outs stand apart in the source and are kept apart here.

Experiments:
[1] = system: Human foreskin fibroblasts (HFF); test: alamarBlue cytotoxicity assay, HFF; assay type: cell-based; details: Fibroblast, 120 h, 5 days
Procedure: (§1) An alamarBlue assay was used to assess the toxicity of thiacloprid to confluent and pre-confluent mammalian cells in vitro [29]. Human foreskin fibroblasts (HFF, Procell) and rat hepatoma cells (RH, Procell) were seeded into 96-well cell culture plates in DMEM supplemented with 10% FBS and 1% penicillin–streptomycin at 37 °C and 5% CO2. For detecting the growth inhibitory effects of confluent cells, HFF and RH cells were seeded at 10,000 cells per well and 50,000 cells per well, respectively. After overnight culture, thiacloprid or PZQ was added and diluted in serial concentrations (0, 0.6, 1.2, 2.5, 5, 10, 20, 40, 80 and 160 μM). For detecting growth inhibitory effects on proliferating cells, cells were seeded at 1000 (HFF) and 5000 (RH) cells per well. Thiacloprid was added after 5 h of cell attachment. To measure the viability of the cells after treatment for 5 days, the alamarBlue assay was employed and viability calculated as described previously.

[2] = set-up: method as in PMID 21786385; details: cited from earlier work
[3] = system: Reuber rat hepatoma (RH) cells; test: alamarBlue cytotoxicity assay, RH cells; assay type: cell-based; details: 120 h, 5 days
Procedure: as §1

[4] = system: E. multilocularis metacestodes; test: PGI assay (phosphoglucose isomerase release) on metacestode vesicles; assay type: cell-based, Echinococcus multilocularis
Procedure: The efficacy of thiacloprid against the E. multilocularis metacestode was evaluated by applying a phosphoglucose isomerase (PGI) assay that measures the release of the enzyme phosphoglucose isomerase upon physical impairment of metacestodes. In brief, medium without phenol red (DMEM, 1% penicillin/streptomycin sulfate, 2 mM L-glutamine) was added to the same volume of vesicles and distributed to 48-well (12–15 per vesicles) plates. Subsequently, metacestodes were incubated for 5 days with different concentrations (0, 0.06, 1.2, 2.5, 5, 10, 20, 40, 80 and 160 μM) of thiacloprid or praziquantel (PZQ), after which PGI release was quantified exactly as described in Stadelmann et al.. Triton X-100 (0.1% in PBS) was applied as a positive control (maximal release of vesicle fluid). Each condition was tested in biological triplicate. After 5 days of incubation, 200 μl medium supernatant was collected from each well and stored at − 20 °C until further measurements were performed. PGI measurements were performed as described earlier, except that an Infinite M200 PRO reader (Tecan, Männedorf, Switzerland) was used to measure the increase in absorbance at 340 nm. PGI activity was calculated using the EC50 calculator (https://www.aatbio.com/tools/ec50-calculator) from the linear regression of the enzyme reaction over time and presented as a percentage relative to the values obtained by treatment of vesicles with 0.1% Triton X-100.

[5] = system: collagen I and III, MMP1, MMP3, MMP9, MMP13; test: Collagen and MMP expression in the host-lesion microenvironment (TEM, Sirius red, qPCR, western blot); assay type: in vivo; details: infected BALB/c mice, 6 weeks oral treatment
Procedure: The metacestodes were fixed with 4% paraformaldehyde and embedded in paraffin to make sections with a thickness of […]. The sections were dewaxed with water, stained with Picrosirius red for 10 min, rinsed and dehydrated with anhydrous ethanol, and sealed with neutral balsam after the xylene was transparent. Each section of 400× visual field image was randomly collected. The ratio of the area of all images collected to the area of the visual field was measured using the ImageJ analysis system, and the percentage of collagen fibre was calculated.
The variations in the microstructure of the protoscoleces or metacestodes were observed under an electron microscope. […] They were washed twice in PBS and then fixed for 3 h with 2.5% glutaraldehyde (pH = 7.2); next, they underwent 2 h post-fixation in 2% OsO4 (SPI-CHEM, West Chester, PA, USA). Subsequently, the samples were washed in double-distilled water and treated with 1% uranyl acetate for 25 min. After the samples were washed again in double-distilled water, dehydration was conducted in ethanol at continuous gradients (30–50–70–80–90–95–100%) over a period of 10 min. For SEM analysis, the dehydrated samples were dipped into hexamethyldisiloxane and then air-dried in a fume hood. The sample was observed under a Hitachi SU8100 scanning electron microscope (Tokyo, Japan) after gold spraying. For TEM analysis, the dehydrated samples passed through a dehydrating agent, and an epoxy resin (SPI-CHEM) permeated and polymerized at 60 °C overnight. A 50-nm ultra-thin section was prepared and then loaded on a 300-mesh copper grid. It was stained with uranyl acetate and lead citrate (SPI-CHEM). The sample was observed under a Hitachi HT7700 transmission electron microscope. To reduce the bias, electron microscopy was observed by professionals in the case of an unknown group.
Total RNA was extracted with TRIzol Reagent (Thermo Fisher Scientific, Waltham, MA, USA) according to the manufacturer’s instructions. The purity and concentrations of RNA were quantified using NanoDrop 2000 absorbance measurements at 260/280 nm. Total RNA was converted into cDNA sequences using the FastKing gDNA Dispelling RT SuperMix Kit (TIANGEN Biotech), and RT-qPCR was performed using the RealUniversal Color PreMix Kit (TIANGEN Biotech) on an ABI QuantStudio 5 system (Applied Biosystems, Waltham, MA, USA). The specific primers are shown in Additional file 4: Table S1. The PCR cycling conditions were as follows: pre-denaturation at 95 °C for 15 min followed by 40 cycles at 95 °C for 10 s and 60 °C for 34 s. The relative mRNA expression levels were quantified using the 2^−ΔΔCT method. RPS18 served as an internal control.
A total protein extraction kit (Solarbio) was used to extract cell or tissue total protein. The protein concentration was determined by the protein quantitative assay kit (Thermo Fisher Scientific). Then, electrophoresis was performed with 20–50 μg of protein sample. The protein was separated by sodium dodecyl sulfate polyacrylamide gel electrophoresis (SDS-PAGE) and transferred to a 0.22 μm PVDF membrane (Merck Millipore, Darmstadt, Germany). The PVDF membrane was blocked with 5% of nonfat powdered milk in Tris-buffered saline Tween 20 (TBST) for 1 h at room temperature. The membrane incubation with primary antibodies was performed at 4 °C overnight. The antibody information is listed in Additional file 5: Table S2. The membrane was washed with TBST and incubated with HRP-labeled secondary antibodies (1:5000, Abclonal, Wuhan, China) for 1 h at room temperature. Blotted membranes were visualized using enhanced chemiluminescence reagents (Thermo Fisher Scientific). Protein expression was depicted as the intensity of each protein relative to that of β-actin using ImageJ software.

SMILES: N#C/N=C1\SCCN1Cc1ccc(Cl)nc1 [thiacloprid]
- IC50 ([1]; confluent cells, read-out: IC50 on confluent HFF): 68.7 ± 9.71 µM
- IC50 ([1]; pre-confluent cells, read-out: IC50 on pre-confluent HFF): 64.8 ± 5.79 µM
- Dose that can cause hepatocellular necrosis and hydropic degeneration [2]: 22.5 mg/kg
- IC50 ([3]; confluent cells, read-out: IC50 on confluent RH cells): 91.4 ± 1.33 µM
- IC50 ([3]; pre-confluent cells, read-out: IC50 on pre-confluent RH cells): 74.3 ± 10.8 µM
- Activity in PGI assay screening ([4]; 20 μM, 5 days and 12 days, active if exceeding 20% relative PGI release): showed activity
- EC50 ([4]; Echinococcus multilocularis, 120 h, read-out: EC50 against E. multilocularis metacestode by the PGI assay): 4.54 ± 1.1 µM
- Collagen fiber deposition in the host-lesion microenvironment (TEM) [5]: can promote
- mRNA expression of MMP1, MMP3, MMP9 and MMP13 in the microenvironment ([5]; qPCR): significantly inhibited
- mRNA and protein expression levels of collagen I and III in the host-lesion microenvironment ([5]; qPCR, western blot): increased
- Protein expression levels of MMP1, MMP3, MMP9 and MMP13 ([5]; western blot): decreased
